System: RSV subgenomic replicon 395 HeLa
Experiment: RSV replicon assay (Renilla luciferase, 395 HeLa replicon cells)
Assay type: cell-based
Conditions: human respiratory syncytial virus, 168 h
Text: The RSV subgenomic replicon 395 HeLa was licensed from Apath (Brooklyn, N.Y.) and was originally developed by Dr. Mark Meeples of Center for Vaccines & Immunity, the Research Institute at Nationwide Children's Hospital in Columbus, Ohio. To generate subgenomic RSV replicon, three glycoprotein genes, those for SH, G, and F, from a full-length recombinant GFP-expressing (rg) RSV antigenomic cDNA were deleted. In their place, a blasticidin S deaminase (bsd) gene was inserted. Through multiple steps, the RSV replicon was established in HeLa cells. The 395 HeLa cells were cultured in Dulbecco's Modified Eagle Medium (DMEM) containing 4500 mg/L D-glucose, L-glutamine, and 110 mg/L sodium pyruvate (Invitrogen, Cat. #11995-040). The medium was further supplemented with 10% (v/v) fetal bovine serum (FBS) (Mediatech, Cat. #35-010-CV), 1% (v/v) penicillin/streptomycin (Mediatech, Cat. #30-002-CI), and 10 μg/mL of Blasticidin (BSD) (Invivogen, Cat. code ant-b1-1). Cells were maintained at 37° C. in a humidified 5% CO2 atmosphere.
Determination of 50% inhibitory concentration […], 90% inhibitory concentration (C90) and 50% cytotoxic concentration […] in RSV replicon cells were performed by the following procedure. […]
The Renilla Luciferase Assay System (Promega, Cat. #E2820) was used to measure anti-RSV replicon activity. […] Luminescence was recorded using a Perkin Elmer multilabel counter Victor3V.

[2H]C([2H])(OC(=O)C(C)C)[C@@]1(CCl)O[C@@H](n2ccc(N)nc2=O)[C@H](F)[C@@H]1OC(=O)C(C)C [Compound 31]
EC50: < 1 µM
